Results reported in ChEMBL document CHEMBL1131130, “Structure-based design of beta-lactamase inhibitors. 1. Synthesis and evaluation of bridged monobactams” (J Med Chem, 1998).
Converted amounts (≈) assume the structure as drawn. The source made the active and inactive calls. The rule behind the calls is not given here.

Tests used:
[1] = Relative permeability as IC50 for beta lactamase inhibition in intact Pseudomonas aeruginosa growing cells to the observed IC50 in the same cells treated with 0.7% final concentration of octyl-poly(oxyethylene);NA= Not active; assay type: functional, cell-based
[2] = molecular target: Beta-lactamase (Pseudomonas aeruginosa (strain ATCC 15692 / PAO1 / 1C / PRS 101 / LMG12228)) (UniProt P24735)
Chain of Beta-lactamase (Pseudomonas aeruginosa (strain ATCC 15692 / PAO1 / 1C / PRS 101 / LMG12228)) (P24735 27-397 limits assumed): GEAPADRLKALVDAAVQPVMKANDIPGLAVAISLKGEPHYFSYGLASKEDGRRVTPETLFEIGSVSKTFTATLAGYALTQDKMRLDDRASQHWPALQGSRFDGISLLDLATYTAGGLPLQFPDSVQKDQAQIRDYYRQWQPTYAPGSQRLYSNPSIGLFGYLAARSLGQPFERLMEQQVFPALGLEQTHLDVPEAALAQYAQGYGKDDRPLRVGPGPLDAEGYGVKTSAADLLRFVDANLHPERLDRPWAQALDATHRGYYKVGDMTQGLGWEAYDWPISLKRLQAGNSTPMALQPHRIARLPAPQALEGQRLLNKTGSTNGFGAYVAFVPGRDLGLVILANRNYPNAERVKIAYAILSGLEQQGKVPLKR
Description: Acylation of Pseudomonas aeruginosa 18SH Beta-lactamase

Beta-lactamase = Beta-lactamase (Pseudomonas aeruginosa (strain ATCC 15692 / PAO1 / 1C / PRS 101 / LMG12228), UniProt P24735); assay: Inhibition of Pseudomonas aeruginosa 18SH Beta-lactamase.
Chain of Beta-lactamase (P24735 whole entry): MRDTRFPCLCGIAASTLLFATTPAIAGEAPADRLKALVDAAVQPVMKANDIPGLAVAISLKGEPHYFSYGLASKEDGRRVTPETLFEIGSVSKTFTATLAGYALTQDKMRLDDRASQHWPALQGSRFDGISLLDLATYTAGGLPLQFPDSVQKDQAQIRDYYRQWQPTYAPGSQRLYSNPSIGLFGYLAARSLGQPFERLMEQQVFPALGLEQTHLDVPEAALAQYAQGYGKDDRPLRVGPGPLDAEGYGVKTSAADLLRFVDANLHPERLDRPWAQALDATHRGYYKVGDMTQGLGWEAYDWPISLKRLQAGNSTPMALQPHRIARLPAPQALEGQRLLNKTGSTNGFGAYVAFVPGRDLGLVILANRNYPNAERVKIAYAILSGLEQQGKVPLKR

[3] = molecular target: Beta-lactamase (Pseudomonas aeruginosa (strain ATCC 15692 / PAO1 / 1C / PRS 101 / LMG12228)) (UniProt P24735); remark: listed apart in the source
Description: Deacylation of 18SH Beta-lactamase of Pseudomonas aeruginosa

[4] = Relative permeability as IC50 for beta lactamase inhibition in intact Citrobacter freundii growing cells to the observed IC50 in the same cells treated with 0.7% final concentration of octyl-poly(oxyethylene);NA= Not active; assay type: functional, cell-based
Escherichia coli = assay: In vitro inhibition of Escherichia coli TEM-3 growth.; assay type: functional
[5] = molecular target: Beta-lactamase (Pseudomonas aeruginosa (strain ATCC 15692 / PAO1 / 1C / PRS 101 / LMG12228)) (UniProt P24735); remark: listed apart in the source
Description: Affinity for stable acyl 18SH Beta-lactamase complex of Pseudomonas aeruginosa

Citrobacter freundii = assay: In vitro inhibition of Citrobacter freundii 1982 growth.; assay type: functional
Pseudomonas aeruginosa = assay: In vitro inhibition of Pseudomonas aeruginosa 18SH growth.; assay type: functional
[6] = Relative permeability as IC50 for beta lactamase inhibition in intact Citrobacter freundii growing cells to the observed IC50 in the same cells treated with 0.7% final concentration of octyl-poly(oxyethylene); assay type: functional
[7] = Relative permeability as IC50 for beta lactamase inhibition in intact Pseudomonas aeruginosa growing cells to the observed IC50 in the same cells treated with 0.7% final concentration of octyl-poly(oxyethylene); assay type: functional
Beta-lactamase TEM = Beta-lactamase TEM (Escherichia coli, UniProt P62593); assay: Inhibitory activity against Escherichia coli TEM-3 Beta-lactamase;NA=not active
Chain of Beta-lactamase TEM (P62593 24-286 limits assumed): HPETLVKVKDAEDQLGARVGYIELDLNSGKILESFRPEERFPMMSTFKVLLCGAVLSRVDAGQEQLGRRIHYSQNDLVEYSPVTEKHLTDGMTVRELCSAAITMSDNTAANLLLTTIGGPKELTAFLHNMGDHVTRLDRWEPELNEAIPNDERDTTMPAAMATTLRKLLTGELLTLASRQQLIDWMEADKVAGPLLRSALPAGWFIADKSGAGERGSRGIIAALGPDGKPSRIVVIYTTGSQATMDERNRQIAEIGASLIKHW

[8] = molecular target: Beta-lactamase (Pseudomonas aeruginosa (strain ATCC 15692 / PAO1 / 1C / PRS 101 / LMG12228)) (UniProt P24735); remark: listed apart in the source
Description: Time taken for deacylation of Pseudomonas aeruginosa 18SH Beta-lactamase

Compound	Ratio [1]	Kon [2] [s⁻¹]	IC50 (Beta-lactamase) [nM]	k off [3] [s⁻¹]	Ratio [4]	MIC (Escherichia coli) [µg/mL]	Ks [5] [µM]	MIC (Citrobacter freundii) [µg/mL]	MIC (Pseudomonas aeruginosa) [µg/mL]	Ratio [6]	Ratio [7]	IC50 (Beta-lactamase TEM)	k off [8] [s⁻¹]
CC(C)(C)OC(=O)N1CCC[C@@H]2[C@H]1C(=O)N2S(=O)(=O)[O-].[Na+]	inactive	0.5	145000	0.0007	inactive	16	3500	–	–	–	–	–	–
O=C1NCC[C@@H]1NC(=O)N1CC[C@@H]2[C@H]1C(=O)N2S(=O)(=O)[O-].[Na+]	–	–	2250	–	–	16	–	1	4	–	–	–	–
O=C(Nc1ccc(O)cc1)N1CC[C@@H]2[C@H]1C(=O)N2S(=O)(=O)[O-].[Na+]	–	0.4	155	5.3e-05	–	8	50	–	–	0.6	38	–	–
O=C(OCc1ccccc1)N1CC[C@@H]2[C@H]1C(=O)N2S(=O)(=O)[O-].[Na+]	–	–	200	–	–	16	–	8	128	–	–	–	–
NC(=O)c1cccc(NC(=O)N2CC[C@@H]3[C@H]2C(=O)N3S(=O)(=O)[O-])c1.[Na+]	–	–	24	–	–	16	–	1	16	–	–	–	–
Cn1ccnc1SCC(=O)N1CC[C@@H]2[C@H]1C(=O)N2S(=O)(=O)[O-].[Na+]	–	–	612	–	–	16	–	1	8	–	–	–	–
O=C(O)[C@H]1/C(=C/CO)O[C@@H]2CC(=O)N21 [CLAVULANIC ACID]	–	–	–	–	–	0.25 (≈ 1.26 µM)	–	8 (≈ 40.2 µM)	> 32	–	–	–	–
Cc1nn(C)c(SCC(=O)N2CC[C@@H]3[C@H]2C(=O)N3S(=O)(=O)[O-])nc1=O.[Na+]	–	–	55	–	–	16	–	0.25	16	–	–	–	–
NC(=O)Nc1ccc(NC(=O)N2CC[C@@H]3[C@H]2C(=O)N3S(=O)(=O)[O-])cc1.[Na+]	–	–	48	–	–	16	–	0.25	4	–	–	–	–
NC(=O)/C=C1\CN(C(=O)OCc2ccccc2)[C@@H]2C(=O)N(S(=O)(=O)[O-])[C@H]12.[Na+]	–	–	1040	–	–	16	–	> 16	> 16	–	–	–	–
Cn1nnnc1SCC(=O)N1CC[C@@H]2[C@H]1C(=O)N2S(=O)(=O)[O-].[Na+]	–	–	200	–	–	8	–	0.5	8	–	–	–	–
O=C(Nc1ccccc1)N1CC[C@@H]2[C@H]1C(=O)N2S(=O)(=O)[O-].[Na+]	–	–	–	–	–	4	–	2	8	–	–	420 nM (not active)	–
NC(C(=O)N1CC[C@@H]2[C@H]1C(=O)N2S(=O)(=O)[O-])c1ccc(O)cc1.[Na+] (stereo partly drawn)	–	2.7	90	< 1e-05	–	8	6.9	–	–	8.7	8.2	–	–
O=C(/C=C/c1c[nH]cn1)N1CC[C@@H]2[C@H]1C(=O)N2S(=O)(=O)[O-].[Na+]	–	–	110	–	–	16	–	0.5	8	–	–	–	–
O=C(CNc1ccc(O)cc1)N1CC[C@@H]2[C@H]1C(=O)N2S(=O)(=O)[O-].[Na+]	–	–	25	–	–	8	–	8	128	–	–	–	–
O=C(OCc1ccccc1)N1C[C@H](F)[C@@H]2[C@H]1C(=O)N2S(=O)(=O)[O-].[Na+]	–	–	380	–	–	16	–	> 16	> 16	–	–	–	–
[NH-]C(=O)c1ccc[n+](CC(=O)N2CC[C@@H]3[C@H]2C(=O)N3S(=O)(=O)[O-])c1.[Na+]	–	0.9	27	–	–	8	65	–	–	0.8	1.2	–	9e-06
CC(C)(C)OC(=O)N1CC[C@@H]2[C@H]1C(=O)N2S(=O)(=O)[O-].[Na+]	–	11	1500	3.7e-05	inactive	16	127	–	–	–	24	–	–
NC(=O)c1ccc(NC(=O)N2CC[C@@H]3[C@H]2C(=O)N3S(=O)(=O)[O-])cc1.[Na+]	–	–	217	–	–	16	–	0.5	4	–	–	–	–
O=C(NC1CCNCC1)N1CC[C@@H]2[C@H]1C(=O)N2S(=O)(=O)[O-].[Na+]	–	1.5	3900	0.0012	–	16	1480	–	–	1.7	1	–	–
Cn1nnnc1S[C@@H]1CN(C(=O)OCc2ccccc2)[C@@H]2C(=O)N(S(=O)(=O)[O-])[C@@H]21.[Na+]	–	3.8	613	4.1e-05	–	16	15	–	–	10	68	–	–
Cn1cnnc1SCC(=O)N1CC[C@@H]2[C@H]1C(=O)N2S(=O)(=O)[O-].[Na+]	–	–	853	–	–	8	–	1	128	–	–	–	–
